Where “and” joins values, the source holds several entries; their conditions need not be identical. Identical values can stand only once. Like-named read-outs stand apart in the source and are kept apart here.
Columns and labels:
[1] = Turbidimetric solubility; type: physicochemical; settings: aqueous buffer, kinetic from dmso stock
From the text: Turbidimetric solubility: Test compound solution prepared in DMSO diluted into aqueous buffer.
Turbidimetry is used as the end-point by measuring absorbance at 620 nm.

[2] = target: T1, UCHL1 (Homo sapiens, UniProt P09936); experiment: UCHL1 DUB IC50; type: biochemical
T1 sequence (P09936 1-223): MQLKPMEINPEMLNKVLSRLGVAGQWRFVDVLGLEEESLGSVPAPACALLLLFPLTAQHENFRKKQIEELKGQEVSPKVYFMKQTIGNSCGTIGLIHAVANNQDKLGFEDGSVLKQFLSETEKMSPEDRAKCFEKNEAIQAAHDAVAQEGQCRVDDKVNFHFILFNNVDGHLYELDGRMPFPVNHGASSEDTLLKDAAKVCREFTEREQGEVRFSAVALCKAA

[3] = target: T2, Cathepsin K (Homo sapiens, UniProt P43235); experiment: Cathepsin K IC50; type: biochemical
T2 sequence (P43235 115-329): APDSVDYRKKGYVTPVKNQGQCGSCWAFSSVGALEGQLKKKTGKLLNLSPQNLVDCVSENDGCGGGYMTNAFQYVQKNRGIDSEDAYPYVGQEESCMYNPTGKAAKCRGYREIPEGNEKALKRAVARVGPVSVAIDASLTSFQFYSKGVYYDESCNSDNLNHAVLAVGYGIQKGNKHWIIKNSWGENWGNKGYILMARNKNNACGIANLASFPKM

[4] = test system: TOM20 ubiquitylation; experiment: TOM20-ubiquitylation assay; type: cell-based, human; settings: Antimycin A/oligomycin mitophagy trigger
From the text: Human cell lines can be challenged with mitochondrial depolarizing agents (ionophores (eg. CCCP, valinomycin), mitochondrial complex inhibitors (oligomycin, antimycin A)) to induce ubiquitylation of TOM20, which is then further promoted in the presence of USP30 inhibitors. TOM20 ubiquitylation is subsequently assessed through western blotting of the cell lysates, with TOM20 ubiquitylation adduct detection possible due to an 8 kDa molecule weight increase for each molecule of ubiquitin added, resulting in laddering of a TOM20 immunoreactive band. TOM20-ubiquitylation levels can be quantified using chemiluminescence densitometry of laddered immunoreactive bands.

[5] = target: T3, USP30 (Homo sapiens, UniProt Q70CQ3); experiment: USP30 biochemical IC50 assay (fluorescence polarisation)
T3 construct: purchased Boston Biochem E582
T3 sequence (Q70CQ3 57-517 limits assumed): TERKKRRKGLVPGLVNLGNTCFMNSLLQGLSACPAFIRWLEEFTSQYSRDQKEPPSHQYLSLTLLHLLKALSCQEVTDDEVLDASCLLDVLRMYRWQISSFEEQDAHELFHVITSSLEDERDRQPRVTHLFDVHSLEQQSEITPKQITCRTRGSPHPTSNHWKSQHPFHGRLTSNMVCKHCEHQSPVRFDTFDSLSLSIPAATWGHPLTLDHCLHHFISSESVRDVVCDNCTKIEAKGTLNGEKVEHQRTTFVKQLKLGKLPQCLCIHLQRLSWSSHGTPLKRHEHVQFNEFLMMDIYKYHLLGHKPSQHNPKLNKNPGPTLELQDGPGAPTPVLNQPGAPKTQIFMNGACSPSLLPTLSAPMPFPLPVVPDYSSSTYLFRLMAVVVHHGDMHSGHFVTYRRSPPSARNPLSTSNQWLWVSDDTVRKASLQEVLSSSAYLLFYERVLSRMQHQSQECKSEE
Method: Dilution plates were prepared at 21 times the final concentration (2100 μM for a final concentration of 100 μM) in 50% DMSO in a 96-well polypropylene V-bottom plate (Greiner #651201). A typical 8-point dilution series would be 100, 30, 10, 3, 1, 0.3, 0.1, 0.03 μM final. Reactions were performed in duplicate in black 384 well plates (small volume, Greiner 784076) in a final reaction volume of 21 μl. Either 1 μl of 50% DMSO or diluted compound was added to the plate. USP30 (Boston Biochem #E582) was diluted in reaction buffer (40 mM Tris, pH 7.5, 0.005% Tween 20, 0.5 mg/ml BSA, 5 mM beta-mercaptoethanol) to achieve a final assay concentration of 4 nM, and 10 μl of diluted USP30 was added to the compound. Enzyme and compound were incubated for 30 min at room temp. Reactions were initiated by the addition of 50 nM of TAMRA labelled peptide linked to ubiquitin via an iso-peptide bond as fluorescence polarisation substrate. Reactions were read immediately after addition of substrate and following a 2-hour incubation at room temperature. Readings were performed on a Pherastar Plus (BMG Labtech). λ Excitation 540 nm; λ Emission 590 nm.

[6] = target: Cathepsin L (Homo sapiens, UniProt P07711); experiment: Cathepsin L IC50; type: biochemical; settings: read-out: Cathepsin IC50 (μM) Cathepsin L
Sequence of Cathepsin L (P07711 114-333, species assumed): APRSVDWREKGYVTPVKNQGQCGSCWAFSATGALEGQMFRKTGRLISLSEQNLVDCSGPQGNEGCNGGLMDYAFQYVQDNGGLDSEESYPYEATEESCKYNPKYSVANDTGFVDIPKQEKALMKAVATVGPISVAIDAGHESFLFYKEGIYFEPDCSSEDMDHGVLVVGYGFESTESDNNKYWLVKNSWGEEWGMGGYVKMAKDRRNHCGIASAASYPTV

[7] = target: Cathepsin V (Homo sapiens, UniProt O60911); experiment: Cathepsin V IC50; type: biochemical
Sequence of Cathepsin V (O60911 114-334, species assumed): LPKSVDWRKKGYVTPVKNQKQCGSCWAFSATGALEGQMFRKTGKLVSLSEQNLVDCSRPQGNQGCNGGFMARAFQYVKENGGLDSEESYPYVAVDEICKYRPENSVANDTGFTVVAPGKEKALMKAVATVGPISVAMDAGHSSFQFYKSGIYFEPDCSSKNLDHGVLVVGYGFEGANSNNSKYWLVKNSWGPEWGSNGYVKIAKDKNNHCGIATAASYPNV

COC[C@@H]1C[C@@H](NC(=O)c2ncc(-c3cccc(C(F)(F)F)c3)o2)CN1C#N [Example 1, N-((3R,5S)-1-Cyano-5-(methoxymethyl)-pyrrolidin-3-yl)-5-(3-(trifluoromethyl)phenyl)oxazole-2-carboxamide]
solubility [1]: > 100 µM
IC50 [2]: > 300 µM
IC50 [3]: 10.2 µM
TOM20-Ub 1.5-fold gain EC1.5x [4]: 0.020 µM
IC50 ([5]; USP30 biochemical IC50 assay, read-out: USP30 IC50): 0.009 µM
IC50 ([5]; read-out: DUB IC50 (μM) USP30): 0.009 µM and 0.004 to 0.033 µM
IC50 [6]: 30.4 µM
IC50 [7]: 105 µM
